Consider five compounds from patent publication US20100273701A1, “USE OF SALUSIN BETA ALONE OR IN COMBINATION WITH OCTREOTIDE AS A THERAPEUTIC AGENT” (priority 2007, published 2010).

Test [1] concerns HIV-1III8. The test is classed as cell-based.
In test [2] the test system is HCMV strain AD169. Briefly: HCMV plaque formation assay in MRC-5 cells. Conditions: for inhibition of HCMV plaque formation as compared to the virus control experiment: 10 micrograms per ml, 7-10 days.
Test [3] relates to Primary Human endothelial cells (HUVEC). Briefly: Endothelial cell migration assay. Conditions: 10 micrograms per ml, 22 hours. It is filed as cell-based.
The test system of test [4] is murine spleen cells. Briefly: Th1/Th2 cytokine profiling assay. It is filed as cell-based, Balb/c mice. Conditions: 10 micrograms per ml, Ovalbumin restimulation, 72 hours; for production of IL-2 in murine spleen cells (induced / increased by): combination 0.95 mole peptide 1 and 1.05 mole peptide 2.
The subject of test [5] is Human A549 cells. Briefly: Apoptosis prevention assay (C2 ceramide, Annexin-5). The test is classed as cell-based. The conditions noted are these: 10 micrograms per ml, 30 min pretreatment, combination 0.95 mole peptide 1 and 1.05 mole peptide 2.
Test [6] has as its system Streptococcus pneumoniae. Conditions: 10 micrograms per ml; read visually.
Test [7] relates to hepatitis B virus (HBV) ayw strain. Briefly: HBV experimental assay system, HepG2-2.2.15 cells, TaqMan PCR of secreted HBV DNA. The test is classed as cell-based. Conditions: 10 micrograms per ml, six days, combination 0.95 mole peptide 1 and 1.05 mole peptide 2. In general terms: Quantitative PCR measures a nucleic acid by following its amplification.
Test [8] deals with HUVEC. Briefly: Endothelial tube formation assay. The test is classed as cell-based, human. Conditions: 10 micrograms per ml; 20 hours; combination peptide 1: peptide 2 1.10 mole: 0.90 mole. An excerpt:
Positive control was vehicle only. […] Raw data were expressed as average tubule […] ±standard deviation.

Take `Cc1cn([C@H]2C[C@H](N=[N+]=[N-])[C@@H](CO)O2)c(=O)[nH]c1=O` [AZT]: the “antiviral activity of positive control compounds (HIV-1)” value in test [1] is “expected levels of antiviral activity”.

As for `Nc1nc(O)c2ncn(COC(CO)CO)c2n1` [Ganciclovir], in test [2] (positive control), the “antiviral activity of positive control compound (HCMV)” value is listed as “expected levels of antiviral activity”.

With `C[C@@H](O)[C@@H]1NC(=O)[C@H](CCCCN)NC(=O)[C@@H](Cc2c[nH]c3ccccc23)NC(=O)[C@H](Cc2ccccc2)NC(=O)[C@@H](NC(=O)[C@H](N)Cc2ccccc2)CSSC[C@@H](C(=O)N[C@H](CO)[C@@H](C)O)NC1=O` [Peptide 2, D-Phe-Cys-Phe-D-Trp-Lys-Thr-Cys-L-threoninol], the “inhibition of HCMV plaque formation as compared to the virus control experiment” value in test [2] worked out at 2.9%. Besides, the “increase of the migration of endothelial cells” value in test [3] is on record as 24%. In test [4], the “change of the production of IL-4 in murine spleen cells” value is “did not significantly change”, the “change of the production of IL-5 in murine spleen cells” value is “did not significantly change”, the “change of the production of TNF-alpha in murine spleen cells” value was “did not significantly change” and the “production of IFN-γ in murine spleen cells (decreased by)” value stood at 44%. The “production of IL-2 in murine spleen cells (induced / increased by)” value in test [4] turned out to be 59.5%. In addition, the “reduction of the ceramide-induced apoptosis on human lung cells” value in test [5] is on record as “did not reduce”. Also, in test [6], the “inhibition of the growth of Streptococcus pneumoniae” value was 100%. For the same compound, the “inhibition of HBV replication as compared to the virus control infection” value in test [7] turned out to be 13.4%. The “inhibition of the tube formation of human endothelial cells” value in test [8] worked out at 8%.

Turning to `CC(C)(C)NC(=O)[C@@H]1CN(Cc2cccnc2)CCN1C[C@@H](O)C[C@@H](Cc1ccccc1)C(=O)N[C@H]1c2ccccc2C[C@H]1O` [indinavir], the “antiviral activity of positive control compounds (HIV-1)” value in test [1] is given as “expected levels of antiviral activity”.

On to “Ala-lle-Phe-Ile-Phe-Ile-Arg-Trp-Leu-Leu-Lys-Leu-Gly-His-His-Gly-Arg-Ala-Pro-Pro-OH [Peptide 1]”, for which the “inhibition of HCMV plaque formation as compared to the virus control experiment” value in test [2] is “did not inhibit”. In test [3] (combination peptide 1: peptide 2 1.10 mole: 0.90 mole), the “inhibition of the migration of human endothelial cells” value is reported as 19%. Further, in test [4], the “change of the production of IL-4 in murine spleen cells” value was “did not significantly change”, the “change of the production of IL-5 in murine spleen cells” value was “did not significantly change”, the “change of the production of TNF-alpha in murine spleen cells” value was “did not significantly change” and the “production of IFN-γ in murine spleen cells (decreased by)” value is given as “did not significantly change”. Also, the “production of IL-2 in murine spleen cells (induced / increased by)” value in test [4] is reported as 156%. The “reduction of the ceramide-induced apoptosis on human lung cells” value in test [5] came to 28.2%. Besides, the “inhibition of the growth of Streptococcus pneumoniae” value in test [6] was “no inhibitory effects”. Moreover, the “inhibition of HBV replication as compared to the virus control infection” value in test [7] is given as 44.6%. The “inhibition of the tube formation of human endothelial cells” value in test [8] came to 23%.
